Assay results: BindingDB's records for doi:10.1124/jpet.104.068098 (University of Kentucky, 2004)

Experiments:
[1] = biological target: Sodium-dependent dopamine transporter (Homo sapiens, UniProt Q01959)
[2] = biological target: Sodium-dependent serotonin transporter (Homo sapiens, UniProt P31645)
[3] = biological target: Sodium-dependent noradrenaline transporter (Homo sapiens, UniProt P23975)
Sodium-dependent noradrenaline transporter, sequence (P23975 whole entry): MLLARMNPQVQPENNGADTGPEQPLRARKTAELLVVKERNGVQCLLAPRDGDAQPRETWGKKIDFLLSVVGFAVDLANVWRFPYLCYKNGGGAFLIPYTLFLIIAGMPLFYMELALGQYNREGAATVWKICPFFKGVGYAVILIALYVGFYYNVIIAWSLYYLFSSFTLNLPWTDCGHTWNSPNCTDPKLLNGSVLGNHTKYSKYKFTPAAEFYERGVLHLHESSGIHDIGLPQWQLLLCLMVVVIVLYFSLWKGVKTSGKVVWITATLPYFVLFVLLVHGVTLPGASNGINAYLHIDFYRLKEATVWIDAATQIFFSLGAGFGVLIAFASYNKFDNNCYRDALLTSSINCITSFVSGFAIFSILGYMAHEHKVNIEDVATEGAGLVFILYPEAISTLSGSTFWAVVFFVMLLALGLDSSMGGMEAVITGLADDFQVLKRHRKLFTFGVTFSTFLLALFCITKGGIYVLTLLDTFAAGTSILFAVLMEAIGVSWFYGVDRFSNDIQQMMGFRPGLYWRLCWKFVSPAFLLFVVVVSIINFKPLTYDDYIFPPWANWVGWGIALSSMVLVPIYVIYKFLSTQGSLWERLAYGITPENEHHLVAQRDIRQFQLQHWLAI

Sodium-dependent dopamine transporter, sequence (Q01959 whole entry): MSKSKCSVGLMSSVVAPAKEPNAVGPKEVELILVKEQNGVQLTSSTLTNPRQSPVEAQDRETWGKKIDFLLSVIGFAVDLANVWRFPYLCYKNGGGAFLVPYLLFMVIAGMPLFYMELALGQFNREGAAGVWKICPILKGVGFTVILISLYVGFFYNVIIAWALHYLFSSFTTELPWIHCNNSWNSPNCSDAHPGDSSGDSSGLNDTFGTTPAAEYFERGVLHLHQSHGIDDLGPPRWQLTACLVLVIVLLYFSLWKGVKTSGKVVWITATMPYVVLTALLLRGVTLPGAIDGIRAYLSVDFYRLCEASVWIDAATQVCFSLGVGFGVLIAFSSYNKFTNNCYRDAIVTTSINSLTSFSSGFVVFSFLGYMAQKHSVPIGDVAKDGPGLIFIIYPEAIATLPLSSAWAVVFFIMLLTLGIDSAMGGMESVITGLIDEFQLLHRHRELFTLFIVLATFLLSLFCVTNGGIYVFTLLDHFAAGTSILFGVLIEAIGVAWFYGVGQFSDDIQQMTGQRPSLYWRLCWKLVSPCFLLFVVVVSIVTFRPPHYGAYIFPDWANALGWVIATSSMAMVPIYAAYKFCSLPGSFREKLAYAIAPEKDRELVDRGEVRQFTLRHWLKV
Sodium-dependent serotonin transporter, sequence (P31645 whole entry): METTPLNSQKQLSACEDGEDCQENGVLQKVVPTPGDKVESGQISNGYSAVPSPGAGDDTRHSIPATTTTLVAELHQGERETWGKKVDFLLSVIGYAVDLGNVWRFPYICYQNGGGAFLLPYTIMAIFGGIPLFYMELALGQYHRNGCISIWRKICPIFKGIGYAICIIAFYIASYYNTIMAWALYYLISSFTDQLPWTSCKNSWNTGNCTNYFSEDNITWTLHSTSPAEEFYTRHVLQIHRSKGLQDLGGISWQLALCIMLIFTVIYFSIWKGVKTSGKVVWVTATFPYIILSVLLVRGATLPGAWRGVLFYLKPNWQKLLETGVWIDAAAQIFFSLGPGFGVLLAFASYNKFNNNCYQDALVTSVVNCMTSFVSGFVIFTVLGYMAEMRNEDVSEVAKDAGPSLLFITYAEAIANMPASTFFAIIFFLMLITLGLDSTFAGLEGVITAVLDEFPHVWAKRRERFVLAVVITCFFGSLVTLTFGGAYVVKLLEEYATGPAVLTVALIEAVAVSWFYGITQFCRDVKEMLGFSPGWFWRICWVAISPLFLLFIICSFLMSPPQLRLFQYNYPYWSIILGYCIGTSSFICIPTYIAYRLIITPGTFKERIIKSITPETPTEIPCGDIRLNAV

| Compound | Ki [1] [nM] | Ki [2] [nM] | Ki [3] [nM] |
| --- | --- | --- | --- |
| CN1[C@H](/C=C/c2ccccc2)CCC[C@@H]1/C=C/c1ccccc1 | 43 | 1890 | 277 |
| CN1[C@@H](CCc2ccccc2)CCC[C@H]1CCc1ccccc1 | 97 | 530 | 1800 |
| CN1[C@@H](C[C@@H](O)c2ccccc2)CCC[C@H]1CC(=O)c1ccccc1 [Lobeline] | 5400 | > 10000 | 1870 |
